Experimental data from patent US20070128217A1 (priority 2003, published 2007).

Key:
[1] = system: antibodies in sera from SARS patients (sera 1a, 1b, 2, 6, 37, 62, London, SARS-yellow, SARS-green); format: binding, human; set-up: Binding of serum 6 to linear peptides of protein X1 of SARS-CoV Urbani / Binding of serum 37 to linear peptides of protein X1 of SARS-CoV Urbani / Binding of serum 6 to looped/cyclic peptide (PEPSCAN-ELISA) / Binding of serum 37 to looped/cyclic peptide (PEPSCAN-ELISA) / Binding of serum 37 to looped/cyclic peptides of protein X1 of SARS-CoV Urbani / Binding of serum 6 to linear peptides of protein X2 / Binding of serum 37 to linear peptides of protein X2 / Binding of serum 37 to looped/cyclic peptides of protein X2 of SARS-CoV Urbani / Binding of serum 6 to linear peptides of protein M of SARS-CoV Urbani / Binding of serum 37 to linear peptides of protein M of SARS-CoV Urbani / Binding of serum 6 to looped/cyclic peptides of protein M of SARS-CoV Urbani / Binding of serum 37 to looped/cyclic peptides of protein M of SARS-CoV Urbani / Binding of serum 6 to linear peptides of protein X3 of SARS-CoV Urbani / Binding of serum 37 to linear peptides of protein X3 of SARS-CoV Urbani / Binding of serum 37 to looped/cyclic peptides of protein X3 of SARS-CoV Urbani / Binding of serum 6 to linear peptides of protein X4 of SARS-CoV Urbani / Binding of serum 37 to linear peptides of protein X4 of SARS-CoV Urbani / Binding of serum 37 to looped/cyclic peptides of protein X4 of SARS-CoV Urbani / Binding of serum 6 to linear peptides of protein X5 of SARS-CoV Urbani / Binding of serum 37 to linear peptides of protein X5 of SARS-CoV Urbani / Binding of serum 37 to looped/cyclic peptides of protein X5 of SARS-CoV Urbani / Binding of serum 6 to linear peptides of protein N of SARS-CoV Urbani / Binding of serum 37 to linear peptides of protein N of SARS-CoV Urbani / Binding of serum 6 to linear peptide (PEPSCAN-ELISA) / Binding of serum 1a to looped/cyclic peptides of protein N of SARS-CoV Urbani / Binding of serum 1b to looped/cyclic peptides of protein N of SARS-CoV Urbani / Binding of serum 2 to looped/cyclic peptides of protein N of SARS-CoV Urbani / Binding of serum 6 to looped/cyclic peptides of protein N of SARS-CoV Urbani / Binding of serum 37 to looped/cyclic peptides of protein N of SARS-CoV Urbani / Binding of serum 62 to looped/cyclic peptides of protein N of SARS-CoV Urbani / Binding of serum London to looped/cyclic peptides of protein N of SARS-CoV Urbani / Binding of serum SARS-green to looped/cyclic peptides of protein N of SARS-CoV Urbani: unit not given here
[2] = system: control sera (pooled serum of ten healthy LUMC hospital workers; commercial negative donor pooled serum from the Dutch bloodbank); format: binding, human; set-up: Binding of Control serum LUMC to linear peptides / Binding of Control serum Blood-bank to linear peptides / Binding of Control serum LUMC to looped peptides / Binding of Control Serum Blood-Bank to Looped peptides / Binding of Control serum LUMC to linear peptides of the protein M of SARS-CoV Urbani / Binding of Control serum Blood-bank to linear peptides of the protein M of SARS-CoV Urbani / Binding of Control serum LUMC to looped peptides of the protein M of SARS-CoV Urbani / Binding of Control Serum Blood-Bank to Looped peptides of the protein M of SARS-CoV Urbani: unit not given here
[3] = system: rabbit serum obtained by immunizing a rabbit with the SARS-CoV strain Frankfurt 1; format: binding; set-up: Binding of a rabbit serum to linear peptides / Binding of a rabbit serum to looped peptides / Rabbit serum linear peptides / Rabbit serum looped peptides / Binding of a rabbit serum to linear peptides of protein N of SARS-CoV Urbani (Rabbit serum linear peptides) / Binding of a rabbit serum to looped/cyclic peptides of protein N of SARS-CoV Urbani (Rabbit serum looped peptides): unit not given here

LALYKGFQFICNLLL
Binding of serum 1a to linear peptides of protein X1 of SARS-CoV Urbani [1]: 0.7
Binding of serum 1a to looped/cyclic peptide (PEPSCAN-ELISA) [1]: 0.5
Binding of serum 1b to linear peptides of protein X1 of SARS-CoV Urbani [1]: 0.5
Binding of serum 1b to looped/cyclic peptide (PEPSCAN-ELISA) [1]: 0.3
Binding of serum 2 to linear peptides of protein X1 of SARS-CoV Urbani [1]: 0.5
Binding of serum 2 to looped/cyclic peptide (PEPSCAN-ELISA) [1]: 0.4
Binding of serum 6 to linear peptides of protein X1 of SARS-CoV Urbani [1]: 0.4
Binding of serum 6 to looped/cyclic peptide (PEPSCAN-ELISA) [1]: 1.4
Binding of serum 37 to linear peptides of protein X1 of SARS-CoV Urbani [1]: 0.5
Binding of serum 37 to looped/cyclic peptide (PEPSCAN-ELISA) [1]: 0.5
Binding of serum 62 to linear peptides of protein X1 of SARS-CoV Urbani [1]: 0.6
Binding of serum 62 to looped/cyclic peptide (PEPSCAN-ELISA) [1]: 0.5
Binding of serum London to linear peptides of protein X1 of SARS-CoV Urbani [1]: 0.2
Binding of serum London to looped/cyclic peptide (PEPSCAN-ELISA) [1]: 1.4
Binding of serum SARS-green to linear peptides of protein X1 of SARS-CoV Urbani [1]: 0.2
Binding of serum SARS-green to looped/cyclic peptide (PEPSCAN-ELISA) [1]: 0.2
Binding of serum SARS-yellow to linear peptides of protein X1 of SARS-CoV Urbani [1]: 0.5
Binding of serum SARS-yellow to looped/cyclic peptide (PEPSCAN-ELISA) [1]: 0.5
Binding of Control Serum Blood-Bank to Looped peptides [2]: 0.6
Binding of Control serum Blood-bank to linear peptides [2]: 0.6
Binding of Control serum LUMC to linear peptides [2]: 0.5
Binding of Control serum LUMC to looped peptides [2]: 0.6
Binding of a rabbit serum to linear peptides [3]: 0.2
Binding of a rabbit serum to looped peptides [3]: 0.6

LAVFQSATKIIALNK
Binding of serum 1a to linear peptides of protein X1 of SARS-CoV Urbani [1]: 0.7
Binding of serum 1a to looped/cyclic peptide (PEPSCAN-ELISA) [1]: 0.5
Binding of serum 1b to linear peptides of protein X1 of SARS-CoV Urbani [1]: 0.5
Binding of serum 1b to looped/cyclic peptide (PEPSCAN-ELISA) [1]: 0.4
Binding of serum 2 to linear peptides of protein X1 of SARS-CoV Urbani [1]: 0.5
Binding of serum 2 to looped/cyclic peptide (PEPSCAN-ELISA) [1]: 0.5
Binding of serum 6 to linear peptides of protein X1 of SARS-CoV Urbani [1]: 0.6
Binding of serum 6 to looped/cyclic peptide (PEPSCAN-ELISA) [1]: 0.6
Binding of serum 37 to linear peptides of protein X1 of SARS-CoV Urbani [1]: 0.6
Binding of serum 37 to looped/cyclic peptide (PEPSCAN-ELISA) [1]: 0.5
Binding of serum 62 to linear peptides of protein X1 of SARS-CoV Urbani [1]: 0.5
Binding of serum 62 to looped/cyclic peptide (PEPSCAN-ELISA) [1]: 0.6
Binding of serum London to linear peptides of protein X1 of SARS-CoV Urbani [1]: 0.2
Binding of serum London to looped/cyclic peptide (PEPSCAN-ELISA) [1]: 0.7
Binding of serum SARS-green to linear peptides of protein X1 of SARS-CoV Urbani [1]: 0.3
Binding of serum SARS-green to looped/cyclic peptide (PEPSCAN-ELISA) [1]: 0.3
Binding of serum SARS-yellow to linear peptides of protein X1 of SARS-CoV Urbani [1]: 0.4
Binding of serum SARS-yellow to looped/cyclic peptide (PEPSCAN-ELISA) [1]: 0.5
Binding of Control Serum Blood-Bank to Looped peptides [2]: 0.5
Binding of Control serum Blood-bank to linear peptides [2]: 0.7
Binding of Control serum LUMC to linear peptides [2]: 0.6
Binding of Control serum LUMC to looped peptides [2]: 0.6
Binding of a rabbit serum to linear peptides [3]: 0.1
Binding of a rabbit serum to looped peptides [3]: 0.7

LCKHKKVSTNLCTHS
Recognition of the peptide by sera of SARS-CoV infected individuals, and form (linear, looped/cyclic) in which it is recognized [1]: recognized in linear form
Binding of Control Serum Blood-Bank to Looped peptides [2]: 0.3
Binding of Control serum Blood-bank to linear peptides [2]: 0.8
Binding of Control serum LUMC to linear peptides [2]: 0.7
Binding of Control serum LUMC to looped peptides [2]: 0.4
Binding of a rabbit serum to linear peptides [3]: 0.3
Binding of a rabbit serum to looped peptides [3]: 0.3
